From PubChem BioAssay (NCI)
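Interpolation was linear, between the two tested concentrations surrounding the appropriate level; five concentrations were tested over 48 hours in 96-well plates. GI50 = concentration required for 50% inhibition of growth. TGI: total growth inhibition.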

Tests used:
Assay in all cases: growth of human tumour cells (NCI), 48 h; in the data active = GI50 below about 0.43 µM; inactive = the rest
786-0 renal = tested on: 786-0 renal
A498 renal = tested on: A498 renal
A549 NSCLC = tested on: A549 NSCLC
ACHN renal = tested on: ACHN renal
BT-549 breast = tested on: BT-549 breast
CAKI-1 renal = tested on: CAKI-1 renal
CCRF-CEM leukemia = tested on: CCRF-CEM leukemia
COLO 205 colon = tested on: COLO 205 colon
DU-145 prostate = tested on: DU-145 prostate
EKVX NSCLC = tested on: EKVX NSCLC
HCC-2998 colon = tested on: HCC-2998 colon
HCT-116 colon = tested on: HCT-116 colon
HCT-15 colon = tested on: HCT-15 colon
HL-60(TB) leukemia = tested on: HL-60(TB) leukemia
HOP-62 NSCLC = tested on: HOP-62 NSCLC
HOP-92 NSCLC = tested on: HOP-92 NSCLC
HS 578T breast = tested on: HS 578T breast
HT29 colon = tested on: HT29 colon
IGROV1 ovarian = tested on: IGROV1 ovarian
K-562 leukemia = tested on: K-562 leukemia
KM12 colon = tested on: KM12 colon
M14 melanoma = tested on: M14 melanoma
MCF7 breast = tested on: MCF7 breast
MDA-MB-231 breast = tested on: MDA-MB-231 breast
MDA-MB-435 = tested on: MDA-MB-435
MOLT-4 leukemia = tested on: MOLT-4 leukemia
NCI-H226 lung = tested on: NCI-H226 lung
NCI-H23 lung = tested on: NCI-H23 lung
NCI-H460 lung = tested on: NCI-H460 lung
NCI-H522 lung = tested on: NCI-H522 lung
NCI/ADR-RES ovarian = tested on: NCI/ADR-RES ovarian
OVCAR-3 ovarian = tested on: OVCAR-3 ovarian
OVCAR-4 ovarian = tested on: OVCAR-4 ovarian
OVCAR-5 ovarian = tested on: OVCAR-5 ovarian
OVCAR-8 ovarian = tested on: OVCAR-8 ovarian
PC-3 prostate = tested on: PC-3 prostate
RPMI-8226 leukemia = tested on: RPMI-8226 leukemia
RXF 393 renal = tested on: RXF 393 renal
SF-268 CNS = tested on: SF-268 CNS
SF-295 CNS = tested on: SF-295 CNS
SF-539 CNS = tested on: SF-539 CNS
SK-MEL-2 melanoma = tested on: SK-MEL-2 melanoma
SK-MEL-28 melanoma = tested on: SK-MEL-28 melanoma
SK-MEL-5 melanoma = tested on: SK-MEL-5 melanoma
SK-OV-3 ovarian = tested on: SK-OV-3 ovarian
SN12C renal = tested on: SN12C renal
SNB-19 CNS = tested on: SNB-19 CNS
SNB-75 CNS = tested on: SNB-75 CNS
SR leukemia = tested on: SR leukemia
SW-620 colon = tested on: SW-620 colon
T-47D breast = tested on: T-47D breast
TK-10 renal = tested on: TK-10 renal
U251 CNS = tested on: U251 CNS
UACC-257 melanoma = tested on: UACC-257 melanoma
UACC-62 melanoma = tested on: UACC-62 melanoma
UO-31 renal = tested on: UO-31 renal
LOX IMVI melanoma = tested on: LOX IMVI melanoma
MALME-3M melanoma = tested on: MALME-3M melanoma

O=C(NCCCCNCCCNC(=O)C(F)(F)F)C(F)(F)F
> 100 µM: TGI (786-0 renal) | TGI (A498 renal) | TGI (A549 NSCLC) | TGI (ACHN renal) | TGI (BT-549 breast) | TGI (CAKI-1 renal) | TGI (CCRF-CEM leukemia) | TGI (COLO 205 colon) | TGI (DU-145 prostate) | TGI (EKVX NSCLC) | TGI (HCC-2998 colon) | TGI (HCT-116 colon) | TGI (HCT-15 colon) | TGI (HL-60(TB) leukemia) | TGI (HOP-62 NSCLC) | TGI (HOP-92 NSCLC) | TGI (HS 578T breast) | TGI (HT29 colon) | TGI (IGROV1 ovarian) | TGI (K-562 leukemia) | TGI (KM12 colon) | TGI (M14 melanoma) | TGI (MCF7 breast) | TGI (MDA-MB-231 breast) | TGI (MDA-MB-435) | TGI (MOLT-4 leukemia) | TGI (NCI-H226 lung) | TGI (NCI-H23 lung) | TGI (NCI-H460 lung) | TGI (NCI-H522 lung) | TGI (NCI/ADR-RES ovarian) | TGI (OVCAR-3 ovarian) | TGI (OVCAR-4 ovarian) | TGI (OVCAR-5 ovarian) | TGI (OVCAR-8 ovarian) | TGI (PC-3 prostate) | TGI (RPMI-8226 leukemia) | TGI (RXF 393 renal) | TGI (SF-268 CNS) | TGI (SF-295 CNS) | TGI (SF-539 CNS) | TGI (SK-MEL-2 melanoma) | TGI (SK-MEL-28 melanoma) | TGI (SK-MEL-5 melanoma) | TGI (SN12C renal) | TGI (SNB-19 CNS) | TGI (SNB-75 CNS) | TGI (SR leukemia) | TGI (SW-620 colon) | TGI (T-47D breast) | TGI (TK-10 renal) | TGI (U251 CNS) | TGI (UACC-257 melanoma) | TGI (UACC-62 melanoma) | TGI (UO-31 renal)
65.5 µM: TGI (SK-OV-3 ovarian)

O=c1[nH]nc2c3c(cccc13)NC(CN1Cc3ccccc3C1)=N2
74.1 µM: TGI (RXF 393 renal)
inactive: GI50 (786-0 renal) 6.62 µM | GI50 (A498 renal) 4.7 µM | GI50 (A549 NSCLC) 5.69 µM | GI50 (ACHN renal) 4.92 µM | GI50 (BT-549 breast) 34.7 µM | GI50 (CAKI-1 renal) 4.92 µM | GI50 (CCRF-CEM leukemia) 4.42 µM | GI50 (COLO 205 colon) 4.09 µM | GI50 (DU-145 prostate) 5 µM | GI50 (EKVX NSCLC) 3.92 µM | GI50 (HCC-2998 colon) 4.35 µM | GI50 (HCT-116 colon) 6.77 µM | GI50 (HCT-15 colon) 6.13 µM | GI50 (HL-60(TB) leukemia) 9.13 µM | GI50 (HOP-62 NSCLC) 3.2 µM | GI50 (HS 578T breast) 37.4 µM | GI50 (HT29 colon) 3.45 µM | GI50 (IGROV1 ovarian) 3.87 µM | GI50 (K-562 leukemia) 8.19 µM | GI50 (KM12 colon) 4.41 µM | GI50 (LOX IMVI melanoma) 3.16 µM | GI50 (M14 melanoma) 4.08 µM | GI50 (MALME-3M melanoma) 49.1 µM | GI50 (MCF7 breast) 3.82 µM | GI50 (MDA-MB-231 breast) 5.5 µM | GI50 (MDA-MB-435) 4.39 µM | GI50 (MOLT-4 leukemia) 4.56 µM | GI50 (NCI-H226 lung) 30.3 µM | GI50 (NCI-H23 lung) 4.41 µM | GI50 (NCI-H460 lung) 5.25 µM | GI50 (NCI-H522 lung) 2.77 µM | GI50 (NCI/ADR-RES ovarian) 25.7 µM | GI50 (OVCAR-3 ovarian) 5.64 µM | GI50 (OVCAR-4 ovarian) 5.77 µM | GI50 (OVCAR-5 ovarian) 5.73 µM | GI50 (OVCAR-8 ovarian) 15 µM | GI50 (PC-3 prostate) 7.23 µM | GI50 (RPMI-8226 leukemia) 8.17 µM | GI50 (RXF 393 renal) 3.79 µM | GI50 (SF-268 CNS) 7.4 µM | GI50 (SF-295 CNS) 5.61 µM | GI50 (SF-539 CNS) 7.9 µM | GI50 (SK-MEL-2 melanoma) > 100 µM | GI50 (SK-MEL-28 melanoma) 15.3 µM | GI50 (SK-MEL-5 melanoma) 8.42 µM | GI50 (SK-OV-3 ovarian) 3.11 µM | GI50 (SN12C renal) 6.75 µM | GI50 (SNB-19 CNS) 52.3 µM | GI50 (SNB-75 CNS) 2.77 µM | GI50 (SR leukemia) 5.13 µM | GI50 (SW-620 colon) 7.03 µM | GI50 (T-47D breast) 5.27 µM | GI50 (TK-10 renal) 8.89 µM | GI50 (U251 CNS) 8.05 µM | GI50 (UACC-257 melanoma) 37 µM | GI50 (UACC-62 melanoma) 4.44 µM | GI50 (UO-31 renal) 4.79 µM
89.7 µM: TGI (COLO 205 colon)
> 100 µM: TGI (786-0 renal) | TGI (A498 renal) | TGI (A549 NSCLC) | TGI (ACHN renal) | TGI (BT-549 breast) | TGI (CAKI-1 renal) | TGI (CCRF-CEM leukemia) | TGI (DU-145 prostate) | TGI (EKVX NSCLC) | TGI (HCC-2998 colon) | TGI (HCT-116 colon) | TGI (HCT-15 colon) | TGI (HL-60(TB) leukemia) | TGI (HOP-62 NSCLC) | TGI (HS 578T breast) | TGI (HT29 colon) | TGI (IGROV1 ovarian) | TGI (K-562 leukemia) | TGI (KM12 colon) | TGI (LOX IMVI melanoma) | TGI (M14 melanoma) | TGI (MALME-3M melanoma) | TGI (MCF7 breast) | TGI (MDA-MB-231 breast) | TGI (MDA-MB-435) | TGI (MOLT-4 leukemia) | TGI (NCI-H226 lung) | TGI (NCI-H23 lung) | TGI (NCI-H460 lung) | TGI (NCI-H522 lung) | TGI (NCI/ADR-RES ovarian) | TGI (OVCAR-3 ovarian) | TGI (OVCAR-4 ovarian) | TGI (OVCAR-5 ovarian) | TGI (OVCAR-8 ovarian) | TGI (PC-3 prostate) | TGI (RPMI-8226 leukemia) | TGI (SF-268 CNS) | TGI (SF-295 CNS) | TGI (SF-539 CNS) | TGI (SK-MEL-2 melanoma) | TGI (SK-MEL-28 melanoma) | TGI (SK-MEL-5 melanoma) | TGI (SK-OV-3 ovarian) | TGI (SN12C renal) | TGI (SNB-19 CNS) | TGI (SNB-75 CNS) | TGI (SR leukemia) | TGI (SW-620 colon) | TGI (T-47D breast) | TGI (TK-10 renal) | TGI (U251 CNS) | TGI (UACC-257 melanoma) | TGI (UACC-62 melanoma) | TGI (UO-31 renal)
